In test [1] the target is EGFR (Human), P00533 [T790M/L858R]. Conditions: nci-h1975.
For test [2] the target is unchanged. Conditions: nci-h1975. This is another data set of the same source.
The target is the same in test [3].

Where only a bound is given, the exact number is not on record here.

Chain of EGFR (Human), P00533 [T790M/L858R] (P00533 whole entry T790M/L858R, looked up): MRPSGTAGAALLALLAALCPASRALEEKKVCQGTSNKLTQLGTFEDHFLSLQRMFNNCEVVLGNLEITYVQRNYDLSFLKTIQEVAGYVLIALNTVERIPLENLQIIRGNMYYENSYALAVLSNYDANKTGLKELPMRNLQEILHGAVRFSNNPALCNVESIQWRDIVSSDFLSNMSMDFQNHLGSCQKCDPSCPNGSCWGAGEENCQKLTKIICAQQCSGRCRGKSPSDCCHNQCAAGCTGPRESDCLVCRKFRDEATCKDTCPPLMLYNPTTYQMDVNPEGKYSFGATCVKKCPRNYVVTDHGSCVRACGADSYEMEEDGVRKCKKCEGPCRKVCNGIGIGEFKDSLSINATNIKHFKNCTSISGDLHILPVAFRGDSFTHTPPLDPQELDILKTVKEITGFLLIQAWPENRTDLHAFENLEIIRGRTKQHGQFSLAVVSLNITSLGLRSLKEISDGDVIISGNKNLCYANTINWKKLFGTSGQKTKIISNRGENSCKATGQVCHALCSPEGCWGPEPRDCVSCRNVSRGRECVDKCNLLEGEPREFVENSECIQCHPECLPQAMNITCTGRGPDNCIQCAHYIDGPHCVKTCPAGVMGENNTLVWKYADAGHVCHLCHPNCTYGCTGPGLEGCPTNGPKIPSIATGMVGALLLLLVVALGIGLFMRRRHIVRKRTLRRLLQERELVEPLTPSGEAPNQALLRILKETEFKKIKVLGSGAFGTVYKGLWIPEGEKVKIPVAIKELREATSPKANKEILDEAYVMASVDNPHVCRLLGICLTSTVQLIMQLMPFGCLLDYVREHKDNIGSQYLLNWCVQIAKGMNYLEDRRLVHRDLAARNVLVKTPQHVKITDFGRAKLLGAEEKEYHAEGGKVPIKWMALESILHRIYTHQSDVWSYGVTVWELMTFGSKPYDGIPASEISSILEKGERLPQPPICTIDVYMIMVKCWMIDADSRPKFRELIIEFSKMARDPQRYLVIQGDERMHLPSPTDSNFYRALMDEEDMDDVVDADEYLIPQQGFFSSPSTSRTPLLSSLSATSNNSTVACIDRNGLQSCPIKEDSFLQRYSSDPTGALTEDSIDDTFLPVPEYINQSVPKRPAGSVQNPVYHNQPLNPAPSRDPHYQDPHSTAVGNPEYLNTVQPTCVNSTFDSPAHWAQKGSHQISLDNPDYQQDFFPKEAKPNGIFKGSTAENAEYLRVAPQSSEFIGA

For `CC(C)n1nc(F)c2cnc(Nc3ccnc(-c4cnn(S(=O)(=O)C5CC5)c4)n3)cc21`, the 50% effective concentration (EC50) in test [1] and in test [2] was over 10000 nM in each case.
Consider `CCC(C)n1nc(N2CC[C@H](O)C2=O)c2cnc(Nc3ccnc(N4CC[C@@H](O)[C@@H](F)C4)n3)cc21` (stereo partly specified), for which the EC50 in test [1] and in test [2] was over 10000 nM each time.
In the case of `CC(C)n1nc(N2CCC(C(N)=O)C2)c2cnc(Nc3ccnc(-c4cnn(S(=O)(=O)C5CC5)c4)n3)cc21` (stereo unspecified), in test [1], the EC50 is 608 nM. For the same compound, the inhibition constant Ki in test [3] was under 0.6 nM.
`CC(C)n1nc(NC2CNC(=O)C2)c2cnc(Nc3ccnc(N4CCC(C)(O)CC4)n3)cc21` (stereo unspecified): the EC50 in test [1] and in test [2] was over 10000 nM each time.
Turning to `COCC1CN(c2nn(C(C)C)c3cc(Nc4ccnc(-c5cnn(S(=O)(=O)C6CC6)c5)n4)ncc23)C1`, the 50% effective concentration (EC50) was determined as 211 nM in test [1] and 20.9 nM in test [2]. Also, the Ki in test [3] stood at 1 nM.
In the case of `CC1COCC(C)N1c1nn(C(C)C)c2cc(Nc3ccnc(-c4cnn(S(=O)(=O)C5CC5)c4)n3)ncc12` (stereo unspecified), the EC50 in test [1] and in test [2] was over 10000 nM each time.
As to `CC(C)n1nc(N2C[C@H](O)[C@@H](O)C2)c2cnc(Nc3ccnc(N4CCC(C)(O)CC4)n3)cc21`, the concentration giving a half-maximal response (EC50) in test [1] and in test [2] was over 10000 nM throughout.
Turning to `CC(C)n1nc(N2CC(C(N)=O)C2)c2cnc(Nc3ccnc(-c4cnn(S(=O)(=O)C5CC5)c4)n3)cc21`, the EC50 in test [1] is 938 nM. In other words, the sub-micromolar range.

Broadly, the EC50 is the midpoint of the concentration-response curve. A word on the Ki: it is a measure of affinity in units of concentration, obtained from inhibition or displacement.

Source of the values: the Kinase Knowledgebase extract (Sharma et al. 2016).
